Where two headings read alike, the source gives them in different places.
Tests used:
[1] = test system: synthesis of dopamine; experiment: Effect on dopamine synthesis: inhibition of dopa accumulation in GBL/NSD-1015-treated rats (Walters and Roth); assay type: in vivo, rats (male, Sprague-Dawley); conditions: Rattus norvegicus, sc, read-out: Dopa Accumulation (% inhib. @ 10 mg/kg, sc)
Experimental: The effect of the compounds of the invention on the synthesis of dopamine was established by the method of Walters and Roth, Naunyn-Schmiedeberg's Arch. Pharmacol. 296:5-14, 1976, in which rats (male, Sprague-Dawley, Charles River, 200-350 g) were administered vehicle or test drug ten minutes prior to the administration of gamma butyrolactone (GBL; 750 mg/kg, ip to inhibit dopaminergic impulse flow) and 20 minutes prior to NSD-1015 (100 mg/kg, ip to prevent the conversion of dopa to dopamine). Thirty minutes after NSD-1015 all rats were decapitated and the nucleus accumbens and the striatum were removed for analysis. Following perchloric acid extraction of the tissue, the extracts were placed over alumina columns to collect and concentrate dopa and other catechols. This eluate was then subjected to HPLC analysis using electrochemical detection to quantify the levels of dopa present. Dopamine autoreceptor agonists, under the conditions used above, inhibit dopa accumulation.

[2] = test system: mouse locomotor activity; experiment: Reduction of mouse locomotor activity (hypolocomotion; Martin and Bendensky); assay type: in vivo, mice (male, CF-1); conditions: ip, horizontal activity counts 10 to 20 minutes after dosing
Experimental: The antipsychotic activity of the compounds of the invention was further established by a determination of the compounds' ability to reduce mouse locomotor activity according to the method of Martin and Bendensky, J. Pharmacol. Exp. Therap. 229:706-711, 1984, in which mice (male, CF-1, Charles River, 20-30 g) were injected with vehicle or various doses of each drug and locomotor activity was measured for 30 minutes using automated infrared activity monitors (Omnitech--8×8 inch open field) located in a darkened room. ED50 's were calculated from the horizontal activity counts collected from 10 to 20 minutes after dosing using a nonlinear regression analysis with inverse prediction.

[3] = target: T1, dopamine D2 receptor (Rattus norvegicus, UniProt P61169); experiment: Affinity for dopamine D2 receptor (3H-quinpirole, rat striatal homogenate); assay type: binding; conditions: rat striatal brain tissue
T1 construct: homogenized rat striatal brain tissue; from tissue; host or cells: rat striatum (homogenized brain tissue)
Experimental: Affinity for the dopamine D2 receptor was established by a modification of the standard experimental test procedure of Seemen and Schaus, European Journal of Pharmacology 203: 105-109, 1991, wherein homogenized rat striatal brain tissue is incubated with ^3 H-quinpirole and various concentrations of test compound, filtered and washed and counted in a Betaplate scintillation counter.

[4] = test system: 5-HT1A receptor; conditions: Fozard et al. 1987, cited from earlier work

T1 sequence (P61169 whole entry): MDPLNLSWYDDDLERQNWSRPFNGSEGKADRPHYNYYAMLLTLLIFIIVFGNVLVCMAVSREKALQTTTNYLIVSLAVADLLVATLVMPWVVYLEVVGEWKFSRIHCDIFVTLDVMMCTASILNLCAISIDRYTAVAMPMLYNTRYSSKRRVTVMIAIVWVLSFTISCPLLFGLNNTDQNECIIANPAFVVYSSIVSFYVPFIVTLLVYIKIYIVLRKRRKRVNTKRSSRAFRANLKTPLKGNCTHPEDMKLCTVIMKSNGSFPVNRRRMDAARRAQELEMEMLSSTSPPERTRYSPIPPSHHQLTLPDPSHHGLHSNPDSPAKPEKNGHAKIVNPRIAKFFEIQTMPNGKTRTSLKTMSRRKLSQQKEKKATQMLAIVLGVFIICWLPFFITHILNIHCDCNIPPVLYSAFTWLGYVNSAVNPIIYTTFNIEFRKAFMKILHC

SMILES	inhibition at 10 mg/kg ([1]; limbic (L) brain tissue)	ED50 [2]	inhibition at 0.1 µM [3]	other results
c1cc(OCCCNCC2COc3cc4c(cc3O2)OCO4)c2cccnc2c1 (centres unmarked) [Example 3, N-[3-(Quinolin-5-yloxy)propyl]-2,3-dihydro-6,7-methylenedioxy-1,4-benzodioxin-2-methanamine]	42.6%	12.6 mg/kg	25%	–
COc1ccc2c(c1)OC(CNCCCOc1ccc3cccnc3c1)CO2 (centres unmarked) [Example 4, N-[3-(Quinolin-7-yloxy)propyl]-2,3-dihydro-7-methoxy-1,4-benzodioxin-2-methanamine]	–	–	55%	–
O=C1CC2(CCCC2)CC(=O)N1CCCCNCC1COc2ccccc2O1 (centres unmarked) [MDL 72832, 8-[4-(1,4-benzodioxan-2-ylmethylamino)butyl]-8-azaspiro[4.5]decane-7,9-dione]	–	–	–	ligand for 5-HT1A receptors (in words) [4]: selective and stereospecific
O=C1CC2(CCCC2)CC(=O)N1CCCCNCC1COc2ccccc2O1 (single isomer, unassigned; (-)) [(-)-MDL 72832]	–	–	–	binding at the 5-HT1A receptor site relative to the dextrorotary isomer (times as much) ([4]; (-)-isomer vs dextrorotary isomer): 32 times
c1ccc2c(c1)OCC(CNCCCOc1ccc3cccnc3c1)O2 (centres unmarked) [Example 1, N-[3-(Quinolin-7-yloxy)propyl]-2,3-dihydro-1,4-benzodioxin-2-methanamine]	29%	–	–	inhibition at 10 mg/kg ([1]; striatal (S) brain tissue): 44%
c1cnc2cc(OCCCNCC3COc4cc5c(cc4O3)OCO5)ccc2c1 (centres unmarked) [Example 2, N-[3-(Quinolin-7-yloxy)propyl]-2,3-dihydro-6,7-methylenedioxy-1,4-benzodioxin-2-methanamine]	60.4%	3 mg/kg	–	IC50 [3]: 63 nM
